pIC50: −log10 of the molar value. In brackets after ≈: the same amount, converted by molar mass. Values belong to the compound of their own block, whether it stands above or below them. Peptide text beside a SMILES is read from it.
What was measured:
[1] = biological target: T1, Mushroom tyrosinase (Agaricus bisporus, UniProt O42713+Q00024+C7FF04+C7FF05); assay: Inhibition of mushroom tyrosinase; format: protein assay
[2] = Antioxidant activity assessed as DPPH radical scavenging activity measured after 30 mins; format: functional
[3] = Antioxidant activity assessed as ABTS radical scavenging activity; format: functional
[4] = Acute toxicity in zebrafish embryos assessed as lethal concentration compound measured for every 24 hrs in 96 hrs; parameters: species or system Danio rerio; settings: in vivo
[5] = Antioxidant activity assessed as DPPH radical scavenging activity; format: functional
[6] = Inhibition of Artocarpus chama tyrosinase
[7] = biological target: T2, Mushroom tyrosinase (Agaricus bisporus) (UniProt O42713+Q00024+C7FF04+C7FF05); assay: Inhibition of mushroom tyrosinase at 50 ug/ml relative to control; format: protein assay; settings: dose 50.0 µg/ml
[8] = tested on: B16-F10; assay: Cytotoxicity against mouse B16-F10 cells assessed as reduction in cell viability at 15 uM incubated for 72 hrs relative to control; format: functional
[9] = biological target: T2, Mushroom tyrosinase (Agaricus bisporus); assay: Inhibition of mushroom tyrosinase at 25 uM using L-tyrosine as substrate incubated for 30 mins relative to control; format: protein assay
[10] = biological target: T1, Mushroom tyrosinase; assay: Inhibition of mushroom tyrosinase monophenolase activity; format: protein assay
[11] = biological target: T1, Mushroom tyrosinase; assay: Inhibition of mushroom tyrosinase diphenolase activity; format: protein assay
[12] = tested on: B16-F10; assay: Antimelanogenic activity against alpha-MSH-stimulated mouse B16-F10 cells assessed as intracellular melanin production level at 10 uM pre-incubated for 1 hrs followed by alph-MSH stimulation and measured after 72 hrs by microplate reader analysis; format: functional; settings: time 73 hrs
[13] = tested on: MNT-1; assay: Antiproliferative activity against human MNT-1 cells assessed as reduction in cell viability incubated for 72 hrs by MTT assay; format: functional, cell-based; settings: MNT-1, 72 h
[14] = Antioxidant activity assessed as hydroxyl radical scavenging activity at 10 uM; format: functional
[15] = Antioxidant activity assessed as interaction reducing activity with DPPH at 10 uM measured after 1 hr by absorbance based assay; format: functional
[16] = tested on: B16-F10; assay: Cytotoxicity against mouse B16-F10 cells; format: functional, cell-based
[17] = biological target: T2, Mushroom tyrosinase (Agaricus bisporus); assay: Inhibition of mushroom tyrosinase at 12.5 ug/ml using L-DOPA as substrate relative to control; format: protein assay; settings: dose 12.5 µg/ml
[18] = biological target: T2, Mushroom tyrosinase (Agaricus bisporus); assay: Inhibition of mushroom tyrosinase monophenolase activity at 12.5 ug/ml using L-tyrosine as substrate relative to control; format: protein assay; settings: dose 12.5 µg/ml
[19] = tested on: B16; assay: Cytotoxicity against mouse B16 cells assessed as inhibition of cell proliferation incubated for 48 hrs by MTS assay; format: functional, cell-based; settings: B16, 48 h

Compound: COc1c(O[C@@H]2O[C@H](CO)[C@@H](O)[C@H](O)[C@H]2O)cc2occ(-c3ccc(O)cc3)c(=O)c2c1O [TECTORIDIN]
IC50 [1]: 2.62 µg/mL
IC50 [2]: 69.36 µg/mL (≈ 150 µM)
IC50 [3]: 135.31 µg/mL (≈ 293 µM)

Compound: NCCCC[C@H](NC(=O)[C@H](Cc1cnc[nH]1)NC(=O)CN)C(=O)O (H-Gly-His-Lys-OH)
LC50 at 24 h [4]: 30 µg/mL (≈ 88.1 µM)

Compound: O=C1O[C@H]([C@@H](O)CO)C(O)=C1O [ASCORBIC ACID]
IC50 [5]: 67.45 µg/mL
IC50 [2]: 5.65 µg/mL (≈ 32.1 µM)
IC50 [3]: 44.62 µg/mL (≈ 253 µM)

Compound: COc1cc2c(cc1O)[C@@H]1COc3cc(O)ccc3[C@@H]1O2
Activity [8]: 14%

Compound: COc1c(O)cc2occ(-c3ccc(O)cc3)c(=O)c2c1O [TECTORIGENIN]
IC50 [1]: 1.39 µg/mL
IC50 [2]: 46.34 µg/mL (≈ 154 µM)
IC50 [3]: 45.6 µg/mL (≈ 152 µM)

Compound: O=C(OC[C@H]1O[C@@H](OC(=O)c2cc(O)c(O)c(O)c2)[C@H](OC(=O)c2cc(O)c(O)c(O)c2)[C@@H](OC(=O)c2cc(O)c(O)c(O)c2)[C@@H]1OC(=O)c1cc(O)c(O)c(O)c1)c1cc(O)c(O)c(O)c1 [PENTAGALLOYL GLUCOSE]
IC50 [10]: 0.02 µM
IC50 [11]: 0.02 µM

Compound: C/C1=C\CC(C)(C)/C=C/C(=O)/C(C)=C/CC1 [ZERUMBONE]
Activity [12]: 40%

Compound: COc1cc(O)c2c(=O)c(-c3ccc(O)cc3O)coc2c1 [CAJANIN]
pIC50 [13]: 6.00

Compound: Cc1ccc(C(C)C)c(O)c1 [THYMOL]
pIC50 [16]: 3.80

Compound: O=C(O)c1cc(O)c(O)c(O)c1 [GALLIC ACID]
IC50 [10]: 1.53 µM
IC50 [11]: 1.06 µM

Compound: COc1c(O)c(OC)c2c(oc3c(O)cccc32)c1OC
LC50 at 24 h [4]: 4 µg/mL (≈ 13.8 µM)

Compound: COc1cc2c(oc3c(O)cccc32)c(OC)c1OC
LC50 at 24 h [4]: 37 µg/mL (≈ 135 µM)

Compound: COc1ccc2c(c1)oc1c(OC)c(O)c(OC)cc12
LC50 at 24 h [4]: 30 µg/mL (≈ 109 µM)

Compound: CC1(C)[C@@H](O)CC[C@]2(C)[C@H]3C(=O)C=C4[C@@H]5C[C@@](C)(C(=O)O)CC[C@]5(C)CC[C@@]4(C)[C@]3(C)CC[C@@H]12 [ENOXOLONE]
IC50 [5]: 7.31 µg/mL
inhibition [9]: 92.6%

More lines, main results first:

IC50 [6]: 38.78 µg/mL (≈ 128 µM)
Compound: COc1cc(O)c2c(c1)OC(c1ccc(O)cc1O)CC2=O (stereo unspecified)

inhibition [7]: 16.3%
Compound: O=C(O)CC(OC(=O)/C=C/c1ccc(O)cc1)C(=O)O (stereo unspecified)

inhibition [9]: 94.9%
IC50 [10]: 0.17 µM
Compound: C[C@@]12C[C@@]3(O)O[C@@H](O1)[C@]1(COC(=O)c4ccccc4)[C@H]3C[C@@]12O[C@@H]1O[C@H](COC(=O)c2cc(O)c(O)c(O)c2)[C@@H](O)[C@H](O)[C@H]1O

pIC50 ([5]; read-out: IC50): 4.95
pIC50 [14]: 5.03
pIC50 [15]: 4.16
Compound: CC(=O)CC(=O)c1ccc(O)c(O)c1

IC50 [1]: 30 µM
Compound: O=C(/C=C/c1ccc(O)c(O)c1)OC(C(=O)O)C(O)C(=O)O (stereo unspecified) [CAFFEOYLTARTARIC ACID]

inhibition [17]: 40.9%
inhibition [18]: 39.5%
Compound: C=C(CC[C@@H](C(=O)O)[C@H]1[C@H](O)C[C@@]2(C)C3=CC[C@@H](C(=C)C)[C@](C)(CCC(=O)O)C3=CC[C@]12C)C(C)C [PORICOIC ACID A]
IC50 [19]: 48 µg/mL (≈ 96.3 µM)

IC50 [10]: 0.06 µM
IC50 [11]: 0.07 µM
Compound: Oc1cc(O)c2c(c1)O[C@H](c1ccc(O)c(O)c1)[C@@H](O)C2 [CIANIDANOL]

Reference: ChEMBL document CHEMBL5584289, “Molecular understanding of the therapeutic potential of melanin inhibiting natural products” (RSC Med Chem, 2024)
